How the values were obtained:
[1] = molecular target: T1, rhSIRT1 binding to rhLamin A (Homo sapiens, UniProt Q96EB6); experiment: Pull-down of rhSIRT1 with rhLamin A in test tube (anti-lamin A immunoprecipitation); details: in the test tube, co-immunoprecipitation
T1 construct: purchased Diatheva, Italy (rhLamin A)
T1 sequence (Q96EB6 1-747): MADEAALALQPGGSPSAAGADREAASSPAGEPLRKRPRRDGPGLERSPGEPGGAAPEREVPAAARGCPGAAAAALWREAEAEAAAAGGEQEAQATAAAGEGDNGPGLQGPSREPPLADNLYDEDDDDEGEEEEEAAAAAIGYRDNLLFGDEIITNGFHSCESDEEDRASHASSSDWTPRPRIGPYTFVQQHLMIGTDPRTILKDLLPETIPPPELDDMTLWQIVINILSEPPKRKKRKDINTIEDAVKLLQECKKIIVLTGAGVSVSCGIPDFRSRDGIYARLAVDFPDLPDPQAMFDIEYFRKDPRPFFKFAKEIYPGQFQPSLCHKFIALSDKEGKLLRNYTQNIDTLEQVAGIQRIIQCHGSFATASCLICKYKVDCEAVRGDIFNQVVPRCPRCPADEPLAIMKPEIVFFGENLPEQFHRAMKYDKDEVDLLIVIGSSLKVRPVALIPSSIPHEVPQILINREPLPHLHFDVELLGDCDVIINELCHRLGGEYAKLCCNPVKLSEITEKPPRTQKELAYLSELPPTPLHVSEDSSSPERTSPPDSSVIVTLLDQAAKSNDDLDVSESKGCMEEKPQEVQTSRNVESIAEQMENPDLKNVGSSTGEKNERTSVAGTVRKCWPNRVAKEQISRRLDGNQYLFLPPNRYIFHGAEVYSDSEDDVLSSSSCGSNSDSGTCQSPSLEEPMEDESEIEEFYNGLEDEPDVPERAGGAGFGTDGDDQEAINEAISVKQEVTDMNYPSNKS
T1 sequence (P02545 1-664 partner): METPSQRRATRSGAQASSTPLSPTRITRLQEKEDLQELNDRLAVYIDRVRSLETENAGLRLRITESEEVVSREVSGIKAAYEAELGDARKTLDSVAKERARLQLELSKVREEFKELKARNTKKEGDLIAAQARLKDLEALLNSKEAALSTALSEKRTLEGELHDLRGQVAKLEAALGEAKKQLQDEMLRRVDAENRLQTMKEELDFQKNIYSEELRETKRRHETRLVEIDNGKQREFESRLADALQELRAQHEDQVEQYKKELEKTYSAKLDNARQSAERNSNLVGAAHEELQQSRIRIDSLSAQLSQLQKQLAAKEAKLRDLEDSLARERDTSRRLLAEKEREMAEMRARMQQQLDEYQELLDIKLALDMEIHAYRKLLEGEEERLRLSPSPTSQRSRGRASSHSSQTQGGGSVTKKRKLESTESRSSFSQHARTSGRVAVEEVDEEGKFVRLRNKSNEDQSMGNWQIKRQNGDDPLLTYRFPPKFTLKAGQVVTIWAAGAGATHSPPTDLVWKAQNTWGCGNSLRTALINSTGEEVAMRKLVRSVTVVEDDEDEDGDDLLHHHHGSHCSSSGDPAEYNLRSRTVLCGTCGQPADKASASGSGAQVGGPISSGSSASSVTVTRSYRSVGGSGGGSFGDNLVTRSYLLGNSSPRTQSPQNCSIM
Protocol: For co-immunoprecipitation, cells were lysed into pre-chilled RIPA buffer containing 300 mM or 500 mM NaCl and protease inhibitors. Primary antibodies or appropriate control IgGs were added to the lysate and incubated for 2 h on a rocking platform at 4° C. before Agarose beads were added and incubated O/N. The beads were washed twice with RIPA buffer, resuspended into Laemmli buffer and boiled, and protein suspension was collected by centrifugation and stored for further analysis.
Consistently, ectopic EGFP-SIRT1 and DsRed-lamin A co-existed in the nuclear interior (FIG. 1D). This interaction seems specific to nuclear SIRT1 as neither cytoplasmic SIRT1 nor mitochondrial SIRT5 was detected in the anti GFP-lamin A immunoprecipitates (FIG. 6C). In addition, SIRT1 physically interacts with lamin A as recombinant human SIRT1 (rhSIRT1) was pulled down by recombinant human lamin A (rhLamin A) in a test tube (FIG. 1E).

Zmpste24−/− mice [2] = experiment: Survival and body weight of Zmpste24−/− mice treated via drinking water; format: in vivo, mouse; details: resveratrol 20 μg/ml in drinking water
Protocol: (§1) Zmpste24^−/− mice have been described previously (Pendas et al., 2002). Mouse experimentation was performed in accordance with the guidelines of the Committee on the Use of Live Animals in Teaching and Research (CULATR) at the University of Hong Kong. New-born Zmpste24^−/− mice and wild-type controls were fed with resveratrol (20 μg/ml) or N-acetyl Cysteine (1 mg/ml) in drinking water. The survival of resveratrol-treated, NAC-treated, or vehicle-treated Zmpste24^−/− mice was recorded and their body weight was monitored weekly. The trabecular bone organization and bone mineral density were determined by micro-CT. The survival rate was analyzed by Kaplan-Meier method and statistical comparison was performed by Log-rank (Mantel-Cox) Test.
Briefly, resveratrol was supplemented at a concentration of 20 μg/ml in drinking water. Four months after treatment, BMSCs were collected for examination and comparison between resveratrol-treated and vehicle-treated Zmpste24^−/− mice.

Zmpste24−/− mice [3] = experiment: Micro-CT of trabecular bone and bone mineral density in Zmpste24−/− mice; format: in vivo, mouse; details: resveratrol 20 μg/ml in drinking water, 4 months
Protocol: as §1

Oc1ccc(C=Cc2cc(O)cc(O)c2)cc1 [resveratrol]
binding of rhSIRT1 to rhLamin A [1]: enhanced the binding
animals still alive (Zmpste24−/− mice [2]; by 26 weeks after birth): ~60%
body weight loss (Zmpste24−/− mice [2]; compared to vehicle-treated controls): significantly slowed down
median survival (Zmpste24−/− mice [2]; vehicle 20 weeks): 27 weeks
maximum lifespan (mean lifespan of the longest-lived 10% of the animals) (Zmpste24−/− mice [2]; vehicle 27.5 weeks): 33.5 weeks
bone mineral density (Zmpste24−/− mice [3]): increased bone mineral density
trabecular structural organization (Zmpste24−/− mice [3]): improved the structural organization
trabecular thickness (Zmpste24−/− mice [3]): increased the trabecular thickness

— patent publication US10086039B2, “Lamin A, an activator of longevity/anti-aging SIRT1 protein” (THE UNIVERSITY OF HONG KONG, priority 2012, dated 2018)
